Here are results for 22 molecules from patent US7947694B2, “Substituted pyrazolo[3,4-D]pyrimidines as cell cycle kinase inhibitors” (Janssen Pharmaceutica NV, priority 2005, dated 2011).

One data set has as its target CDK4/cyclinD1 (Homo sapiens, UniProt P11802). The experiment in a line: In vitro filtration assay for CDK4 inhibitory activity. The settings on record: GST-pRb phosphorylation, [33P]-ATP, 1 μM unlabeled ATP, 25° C., 45 minutes; read-out: cdk4 filter (pIC50) (converted). It is filed as biochemical. Here is the method:
C.1. In Vitro Filtration Assay for CDK4 Inhibitory Activity
Compounds of the present invention were tested in an in vitro filtration assay assessing CDK4 activity by means of its pRb-phosphorylation activity using [^33P]-ATP as phosphor donor. The radioactive phosphorylated pRb is then captured on filtermats and the incorporated [^33P] quantitated using a phosphorage storage screen.
The CDK4 kinase reaction is performed at 25° C. for 45 minutes in a 96-well microtiterplate. The 25 μl reaction volume contains 50 mM Hepes pH 7.5, 10 mM NaF, 10 mM MgCl2, 1 mM Na3VO4, 1 μM unlabeled ATP, 1 mM DTT, 0.5 μCi AT^33P, 0.76 μg/well GST-pRb, 50 ng CDK4/cyclinD1/well and 0.2% compound in 100% DMSO.
(§1) The reaction is stopped by adding 5 μl of a 3% phosphoric acid solution. 10 μl of the reaction mixture is then spotted onto a Filtermat P30 filter (Wallac) and washed 3 times for 5 min. in 75 mM phosphoric acid and 1 time for 5 min. in methanol prior to drying and quantification on the Typhoon (Amersham) using a phosphorage storage screen.
(§2) C.4. Calculation of pIC50 Values
(§3) For each experiment, controls (containing enzyme (complex) and DMSO without compound), a blank incubation (containing DMSO but no enzyme (complex) or compound) and samples (containing enzyme (complex) and compound dissolved in DMSO) were run in parallel. All compounds tested were dissolved and eventually further diluted in DMSO. […] In each test, the blank value was subtracted from both the control and the sample values. The control sample represented maximal enzyme activity. For each sample, the amount of cpm was expressed as a percentage of the mean cpm value of the controls. When appropriate, IC50-values (concentration of the drug, needed to reduce the enzyme activity to 50% of the control) were computed using linear interpolation between the experimental points just above and below the 50% level. Herein the effects of test compounds are expressed as pIC50 (the negative log value of the IC50-value).

A further data set has as its target T1, Aurora A (Homo sapiens, UniProt O14965).
T1 sequence (O14965 1-403): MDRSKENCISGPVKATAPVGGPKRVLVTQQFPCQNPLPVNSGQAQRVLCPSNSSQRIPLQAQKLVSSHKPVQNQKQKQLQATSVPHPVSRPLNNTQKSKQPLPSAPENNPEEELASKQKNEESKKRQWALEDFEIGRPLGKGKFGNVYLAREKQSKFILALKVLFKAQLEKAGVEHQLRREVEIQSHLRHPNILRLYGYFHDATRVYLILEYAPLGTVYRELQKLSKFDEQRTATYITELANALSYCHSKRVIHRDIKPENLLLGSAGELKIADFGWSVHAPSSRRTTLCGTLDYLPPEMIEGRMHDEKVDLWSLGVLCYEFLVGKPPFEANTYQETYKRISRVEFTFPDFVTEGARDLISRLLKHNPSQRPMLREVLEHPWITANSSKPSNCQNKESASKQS
The experiment in a line: In vitro filtration assay for AURORA A inhibitory activity. The format is biochemical. The following applies: 200 μM Kemptide substrate, [33P]-ATP, 1 μM unlabeled ATP, 25° C., 40 minutes; read-out: Aurora A see C.2 (pIC50) (converted). Here is the method: C.2. In Vitro Filtration Assay for AURORA A Inhibitory Activity
Compounds of the present invention were tested in an in vitro filtration assay assessing AURORA A activity by means of its substrate-phosphorylation activity using [^33P]-ATP as phosphor donor. The radioactive phosphorylated substrate is then captured on filtermats and the incorporated [^33P] quantitated using a phosphorage storage screen.
The Aurora-A kinase reaction is performed at 25° C. for 40 minutes in a 96-well microtiterplate. The 25 μl reaction volume contains 12 mM MOPS pH 7, 0.4 mM EDTA, 0.002% Brij35, 1% glycerol, 0.02% beta-mercapto-ethanol, 0.2 mg/ml BSA, 1 μM unlabeled ATP, 0.2 μCi [^33P]-ATP, 200 μM Kemptide, 3 ng Aurora A/well and 0.2% compound in 100% DMSO.
as §1, §2, §3

A further data set concerns the target Aurora-B (Homo sapiens, UniProt Q96GD4). The data set can be described thus: In vitro filtration assay for AURORA B inhibitory activity. The following applies: peptide (C(LRRWSLG)×4) substrate, [33P]-ATP, 1 μM unlabeled ATP, 25° C., 40 minutes; read-out: Aurora B see C.3 (pIC50) (converted). The format is biochemical. Here is the method: C.3 In Vitro Filtration Assay for AURORA B Inhibitory Activity
Compounds of the present invention were tested in an in vitro filtration assay assessing AURORA B activity by means of its substrate-phosphorylation activity using [^33P]-ATP as phosphor donor. The radioactive phosphorylated substrate is then captured on filtermats and the incorporated [^33P] quantitated using a phosphorage storage screen.
The Aurora-B kinase reaction is performed at 25° C. for 40 minutes in a 96-well microtiterplate. The 25 μl reaction volume contains 60 mM Hepes pH 7.5, 3 mM MgCl2, 3 mM MnCl2, 3 μM Na3VO4, 50 μg/ml PEG20000, 1 μM unlabeled ATP, 1 mM DTT, 0.2 μCi AT^33P, 0.25 μg/well peptide (C(LRRWSLG)×4), 100 ng Aurora-B/well and 0.2% compound in 100% DMSO.
as §1, §2, §3

Structures can show the parent of a compound that is named as a salt. Bounds are passed on as bounds.

Chain of CDK4/cyclinD1 (P11802 whole entry, species assumed): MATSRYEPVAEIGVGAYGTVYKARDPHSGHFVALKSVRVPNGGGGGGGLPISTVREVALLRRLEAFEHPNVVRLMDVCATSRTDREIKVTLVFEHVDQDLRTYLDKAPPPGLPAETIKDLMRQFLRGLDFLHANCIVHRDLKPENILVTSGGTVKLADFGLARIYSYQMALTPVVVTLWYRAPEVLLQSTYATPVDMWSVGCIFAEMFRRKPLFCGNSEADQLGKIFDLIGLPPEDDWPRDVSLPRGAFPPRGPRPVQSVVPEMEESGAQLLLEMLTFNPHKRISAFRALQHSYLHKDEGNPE
Chain of CDK4/cyclinD1 (P24385 whole entry partner, species assumed): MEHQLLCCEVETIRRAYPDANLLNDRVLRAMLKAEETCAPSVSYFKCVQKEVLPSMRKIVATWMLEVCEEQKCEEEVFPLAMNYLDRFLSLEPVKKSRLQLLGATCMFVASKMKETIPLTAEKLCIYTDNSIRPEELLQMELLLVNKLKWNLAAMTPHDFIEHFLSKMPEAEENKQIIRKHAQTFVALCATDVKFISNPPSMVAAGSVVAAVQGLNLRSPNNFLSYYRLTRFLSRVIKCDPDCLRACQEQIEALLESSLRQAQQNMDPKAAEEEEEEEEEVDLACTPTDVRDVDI
Chain of Aurora-B (Q96GD4 whole entry): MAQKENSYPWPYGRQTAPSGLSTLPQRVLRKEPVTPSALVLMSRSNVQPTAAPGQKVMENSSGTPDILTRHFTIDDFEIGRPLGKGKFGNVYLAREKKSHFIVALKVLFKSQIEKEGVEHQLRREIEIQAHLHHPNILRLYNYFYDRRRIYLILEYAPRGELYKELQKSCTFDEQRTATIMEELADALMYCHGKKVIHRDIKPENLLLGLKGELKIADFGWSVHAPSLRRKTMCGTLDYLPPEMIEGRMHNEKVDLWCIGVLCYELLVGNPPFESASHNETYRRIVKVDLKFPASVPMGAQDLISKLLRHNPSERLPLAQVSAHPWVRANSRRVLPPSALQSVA

Consider `CC(C)(C)OC(=O)N(Cc1ccc(Nc2ncc3cnn(C4CCCCC4)c3n2)cc1)C1Cc2ccccc2C1` [Co. No. 15], for which the IC50 was more than 10000 nM on CDK4/cyclinD1, 1000 nM at Aurora A and more than 10000 nM at Aurora-B.

For the molecule `COCCCNCc1ccc(Nc2ncc3cnn([C@H]4C[C@@H]5CC[C@H]4C5)c3n2)cc1` [Co. No. 10], the IC50 is 31.6 nM on CDK4/cyclinD1, 200 nM on Aurora A and 200 nM on Aurora-B.

Take `c1ccc2c(c1)CC(NCc1ccc(Nc3ncc4cnn(C5CCOCC5)c4n3)cc1)C2` [Co. No. 18]: the figures for the IC50 at CDK4/cyclinD1, at Aurora A and on Aurora-B were 63.1 nM, 3160 nM and 6310 nM, respectively.

Take `CCN(CC)CC(O)COc1ccc(Nc2ncc3cnn(C4CCCCC4)c3n2)cc1` (centres unmarked) [Co. No. 1]: the IC50 on CDK4/cyclinD1 is 7.94 nM; on Aurora A, 1580 nM; on Aurora-B it was more than 10000 nM.

`c1ccc2c(c1)CC(NCc1ccc(Nc3ncc4cnn(C5CCCCC5)c4n3)cc1)C2` [Co. No. 16]: the IC50 was 12.6 nM on CDK4/cyclinD1, 251 nM on Aurora A and 7940 nM at Aurora-B.

For the molecule `CCN(CC)CCCOc1ccc(Nc2ncc3cnn(C4CCCCC4)c3n2)cc1` [Co. No. 7], the figures for the IC50 at CDK4/cyclinD1, at Aurora A and on Aurora-B were 20 nM, more than 10000 nM and more than 10000 nM, respectively.

As to `CCN(CC)CCNC(=O)c1ccc(Nc2ncc3cnn(C4CCCCC4)c3n2)cc1` [Co. No. 6], the values for the IC50 at CDK4/cyclinD1, on Aurora A and at Aurora-B were 25.1 nM, 1580 nM and more than 10000 nM, respectively.

With `CN(C)CCOC(=O)c1ccc(Nc2ncc3cnn(C4CCCCC4)c3n2)cc1` [Co. No. 21], the values for the IC50 at CDK4/cyclinD1, at Aurora A and at Aurora-B were 100 nM, 631 nM and 7940 nM, respectively.

Regarding `COCCCNCc1ccc(Nc2ncc3cnn([C@H]4C[C@@H]5CC[C@H]4C5)c3n2)cc1` [Co. No. 9], the figures for the IC50 at CDK4/cyclinD1, at Aurora A and at Aurora-B were 79.4 nM, 251 nM and 158 nM, respectively.

For `CC(C)(C)OC(=O)N(c1ccc(CN(C(=O)OC(C)(C)C)C2Cc3ccccc3C2)cc1)c1ncc2cnn([C@H]3C[C@@H]4CC[C@H]3C4)c2n1` [Co. No. 19], the IC50 is more than 10000 nM at CDK4/cyclinD1, 158 nM at Aurora A and 631 nM at Aurora-B.

`COCCCN(Cc1ccc(Nc2ncc3cnn(C4CCOCC4)c3n2)cc1)C(=O)OC(C)(C)C` [Co. No. 13]: the IC50 on CDK4/cyclinD1 was 2000 nM; on Aurora A, 100 nM; on Aurora-B it was 794 nM.

`COCCCNS(=O)(=O)c1ccc(Nc2ncc3cnn(C4CCCCC4)c3n2)cc1` [Co. No. 5]: the figures for the IC50 at CDK4/cyclinD1, on Aurora A and at Aurora-B were 1260 nM, 631 nM and more than 10000 nM, respectively.

As to `COCCCN(Cc1ccc(Nc2ncc3cnn([C@H]4C[C@@H]5CC[C@H]4C5)c3n2)cc1)C(=O)OC(C)(C)C` [Co. No. 11], the IC50 was 2000 nM on CDK4/cyclinD1, 794 nM at Aurora A and 5010 nM at Aurora-B.

In the case of `COCCCNCc1ccc(Nc2ncc3cnn(C4CCOCC4)c3n2)cc1` [Co. No. 12], the IC50 at CDK4/cyclinD1 is 631 nM; on Aurora A, 3980 nM; at Aurora-B, 7940 nM.

Regarding `COCCCNCc1ccc(Nc2ncc3cnn(C4CCCCC4)c3n2)cc1` [Co. No. 2], the IC50 is 6.31 nM on CDK4/cyclinD1, 158 nM on Aurora A and more than 10000 nM on Aurora-B.

Take `COCCCN(Cc1ccc(Nc2ncc3cnn(C4CCCCC4)c3n2)cc1)C(=O)OC(C)(C)C` [Co. No. 8]: the IC50 at CDK4/cyclinD1 is 1000 nM; at Aurora A it was 631 nM; at Aurora-B, more than 10000 nM.

Regarding `c1ccc2c(c1)CC(NCc1ccc(Nc3ncc4cnn([C@H]5C[C@@H]6CC[C@H]5C6)c4n3)cc1)C2` [Co. No. 4], the IC50 on CDK4/cyclinD1 was 25.1 nM; at Aurora A, 316 nM; at Aurora-B, 316 nM.

In the case of `c1cc2cc(Nc3ncc4cnn(C5CCCCC5)c4n3)ccc2[nH]1` [Co. No. 14], the values for the IC50 on CDK4/cyclinD1, at Aurora A and at Aurora-B were 158 nM, 316 nM and 7940 nM, respectively.

As for `O=C(NC1Cc2ccccc2C1)c1ccc(Nc2ncc3cnn(C4CCCCC4)c3n2)cc1` [Co. No. 17], the IC50 was 63.1 nM at CDK4/cyclinD1, 316 nM at Aurora A and 501 nM on Aurora-B.

Broadly, the melting point is the temperature, or range, at which the solid turns liquid. In the case of `COCCCNCc1ccc(Nc2ncc3cnn(C4CCCCC4)c3n2)cc1` (as salt: HCl) [Co. No. 2], the melting point fell in the range of 212 to 214 °C.

Regarding `CC(C)(C)OC(=O)N(Cc1ccc(Nc2ncc3cnn([C@H]4C[C@@H]5CC[C@H]4C5)c3n2)cc1)C1Cc2ccccc2C1` [Co. No. 20], the IC50 was more than 10000 nM on CDK4/cyclinD1, 6310 nM on Aurora A and more than 10000 nM at Aurora-B.

The molecule `c1ncn(-c2ccc(Nc3ncc4cnn(C5CCCCC5)c4n3)cc2)n1` [Co. No. 3] had a melting point of 222.5 to 224 °C. Besides, the IC50 at CDK4/cyclinD1 was 15.8 nM. Moreover, the IC50 on Aurora A is 126 nM. Moreover, the IC50 at Aurora-B is 7940 nM.
